Reference: patent US20100297020A1, “PHOSPHORYLATED AND PHOSPHONATED PYRONE ANALOGS FOR THERAPEUTIC TREATMENT” (Limerick Biopharma, Inc., priority 2008, published 2010)
Read-outs that look alike come from different tables or passages of the source.

Tests used:
[1] = test system: ATPase, Na+/K+, Heart, Pig; assay: Secondary toxicity screen (MDS Pharma Services): ATPase, Na+/K+; type: biochemical
[2] = target: Nitric Oxide Synthase, Endothelial (eNOS) (Homo sapiens, UniProt P29474); assay: Secondary toxicity screen: eNOS; type: biochemical
[3] = target: Protein Tyrosine Kinase, FGFR2 (Homo sapiens, UniProt P21802); assay: Secondary toxicity screen: FGFR2; type: biochemical
[4] = target: Protein Tyrosine Kinase, FGFR1 (Homo sapiens, UniProt P11362); assay: Secondary toxicity screen: FGFR1; type: biochemical
[5] = target: Protein Tyrosine Kinase, Insulin Receptor (Homo sapiens, UniProt P06213); assay: Secondary toxicity screen: Insulin Receptor kinase; type: biochemical
Protein Tyrosine Kinase, = assay: Secondary toxicity screen: Protein Tyrosine Kinase (name not given); type: biochemical
[6] = target: Protein Tyrosine Kinase, ZA70 (ZAP-70) (Homo sapiens, UniProt P43403); assay: Secondary toxicity screen: ZAP-70; type: biochemical
AdenosineA1 [7] = target: T1, AdenosineA1 (Homo sapiens, UniProt P30542); assay: Secondary toxicity screen: Adenosine A1; type: binding
T1 sequence (P30542 1-326): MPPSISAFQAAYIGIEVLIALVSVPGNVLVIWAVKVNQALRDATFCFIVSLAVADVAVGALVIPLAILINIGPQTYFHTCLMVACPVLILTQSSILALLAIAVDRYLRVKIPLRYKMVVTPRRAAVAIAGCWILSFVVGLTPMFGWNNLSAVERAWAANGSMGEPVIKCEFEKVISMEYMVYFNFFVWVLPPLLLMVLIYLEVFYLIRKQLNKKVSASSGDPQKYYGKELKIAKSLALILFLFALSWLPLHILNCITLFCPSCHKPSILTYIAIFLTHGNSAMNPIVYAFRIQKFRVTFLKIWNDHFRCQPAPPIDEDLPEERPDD

Adrenergic α2A = Adrenergic α2A (Homo sapiens, UniProt P08913); assay: Secondary toxicity screen: Adrenergic α2A; type: binding
Dopamine D47 = assay: Secondary toxicity screen: Dopamine D47; type: binding
[8] = target: Peripheral Benzodiazepine Receptor (PBR) (Homo sapiens, UniProt P30536); assay: Secondary toxicity screen: Peripheral Benzodiazepine Receptor; type: binding
[9] = test system: Transporter, Monoamine rabbit; assay: Secondary toxicity screen: Transporter, Monoamine; type: binding
[10] = target: Serotonin (5-Hydroxytryptamine) 5-HT1A (Homo sapiens, UniProt P08908); assay: Secondary toxicity screen: 5-HT1A; type: binding
AdenosineA1 [11] = target: T1, AdenosineA1; assay: AdenosineA1 GTPγS functional assay; type: biochemical
Experimental: (§1) The compound is additionally tested in AdenosineA1, AdrenergicA2A, DopamineD25, Histamine H1-, and μ-Opiate GTPγS functional assays using a concentration of 10 μM.
(§2) The compound may be additionally tested in AdenosineA1, AdrenergicA2A, DopamineD25, Histamine H1-, and μ-Opiate GTPγS functional assays using a concentration of 10 μM.
(§3) The compound can be additionally tested in AdenosineA1, AdrenergicA2A, DopamineD25, Histamine H1-, and μ-Opiate GTPγS functional assays using a concentration of 10 μM.

AdrenergicA2A = target: T2, AdrenergicA2A (Homo sapiens, UniProt P08913); assay: AdrenergicA2A GTPγS functional assay; type: biochemical
T2 sequence (P08913 1-465): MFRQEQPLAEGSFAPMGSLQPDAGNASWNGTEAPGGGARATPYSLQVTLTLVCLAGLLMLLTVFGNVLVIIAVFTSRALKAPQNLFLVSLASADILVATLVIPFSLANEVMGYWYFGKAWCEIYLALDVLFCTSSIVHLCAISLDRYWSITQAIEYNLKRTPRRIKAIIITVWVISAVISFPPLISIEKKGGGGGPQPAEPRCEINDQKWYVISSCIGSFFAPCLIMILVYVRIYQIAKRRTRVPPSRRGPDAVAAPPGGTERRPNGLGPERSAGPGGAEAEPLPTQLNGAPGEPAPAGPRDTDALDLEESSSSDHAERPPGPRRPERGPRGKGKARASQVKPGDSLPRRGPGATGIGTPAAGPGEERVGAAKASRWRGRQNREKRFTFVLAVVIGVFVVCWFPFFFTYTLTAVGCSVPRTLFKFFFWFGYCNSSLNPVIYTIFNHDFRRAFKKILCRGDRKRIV
Experimental: as §1, §2, §3

[12] = pH 8
Experimental: Quercetin-3′-O-phosphate is dissolved in water at about pH 8.
Fisetin-3′-O-phosphate is dissolved in water at about pH 8.
Quercetin-3′-O-methylphosphonate (Compound 2) is dissolved in water at about pH 8.

[13] = target: UDP Glucuronosyltransferase, UGT1A1 (Homo sapiens, UniProt P22309)
[14] = target: UGT1A1 (UDP glucuronosyltransferase) (Homo sapiens, UniProt P22309); assay: in vitro
[15] = 10 uM, read-out: percent inhibition at 10 μM

Chain of Serotonin (5-Hydroxytryptamine) 5-HT1A (P08908 whole entry): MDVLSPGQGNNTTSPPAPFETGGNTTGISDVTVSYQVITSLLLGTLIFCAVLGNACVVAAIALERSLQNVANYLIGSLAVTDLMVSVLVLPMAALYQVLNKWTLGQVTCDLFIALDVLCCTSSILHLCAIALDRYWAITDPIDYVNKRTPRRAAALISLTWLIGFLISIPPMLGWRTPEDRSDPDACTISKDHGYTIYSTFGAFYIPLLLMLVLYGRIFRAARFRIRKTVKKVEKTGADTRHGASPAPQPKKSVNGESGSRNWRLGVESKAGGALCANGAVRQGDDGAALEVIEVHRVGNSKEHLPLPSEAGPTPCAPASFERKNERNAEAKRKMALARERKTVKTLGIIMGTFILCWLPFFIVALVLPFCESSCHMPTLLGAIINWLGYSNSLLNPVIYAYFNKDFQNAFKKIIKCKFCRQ
Chain of Protein Tyrosine Kinase, ZA70 (ZAP-70) (P43403 whole entry, species assumed): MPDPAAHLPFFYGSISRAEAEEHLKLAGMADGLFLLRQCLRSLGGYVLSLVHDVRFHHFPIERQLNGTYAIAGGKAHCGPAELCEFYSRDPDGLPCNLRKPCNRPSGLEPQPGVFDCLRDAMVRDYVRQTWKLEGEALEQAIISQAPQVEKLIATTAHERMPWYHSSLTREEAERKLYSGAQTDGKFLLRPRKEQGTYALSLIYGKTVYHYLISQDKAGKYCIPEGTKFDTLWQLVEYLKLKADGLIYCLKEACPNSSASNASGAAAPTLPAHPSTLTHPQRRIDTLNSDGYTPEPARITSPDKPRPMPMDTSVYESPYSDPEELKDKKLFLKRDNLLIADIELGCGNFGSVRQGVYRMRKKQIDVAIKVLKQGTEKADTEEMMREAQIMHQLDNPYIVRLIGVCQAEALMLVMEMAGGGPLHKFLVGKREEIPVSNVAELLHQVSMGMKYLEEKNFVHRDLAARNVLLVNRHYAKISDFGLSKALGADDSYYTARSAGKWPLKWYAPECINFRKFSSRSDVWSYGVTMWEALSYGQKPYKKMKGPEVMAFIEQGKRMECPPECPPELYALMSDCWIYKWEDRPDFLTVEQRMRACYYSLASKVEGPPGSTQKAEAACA
Chain of Protein Tyrosine Kinase, FGFR2 (P21802 22-821): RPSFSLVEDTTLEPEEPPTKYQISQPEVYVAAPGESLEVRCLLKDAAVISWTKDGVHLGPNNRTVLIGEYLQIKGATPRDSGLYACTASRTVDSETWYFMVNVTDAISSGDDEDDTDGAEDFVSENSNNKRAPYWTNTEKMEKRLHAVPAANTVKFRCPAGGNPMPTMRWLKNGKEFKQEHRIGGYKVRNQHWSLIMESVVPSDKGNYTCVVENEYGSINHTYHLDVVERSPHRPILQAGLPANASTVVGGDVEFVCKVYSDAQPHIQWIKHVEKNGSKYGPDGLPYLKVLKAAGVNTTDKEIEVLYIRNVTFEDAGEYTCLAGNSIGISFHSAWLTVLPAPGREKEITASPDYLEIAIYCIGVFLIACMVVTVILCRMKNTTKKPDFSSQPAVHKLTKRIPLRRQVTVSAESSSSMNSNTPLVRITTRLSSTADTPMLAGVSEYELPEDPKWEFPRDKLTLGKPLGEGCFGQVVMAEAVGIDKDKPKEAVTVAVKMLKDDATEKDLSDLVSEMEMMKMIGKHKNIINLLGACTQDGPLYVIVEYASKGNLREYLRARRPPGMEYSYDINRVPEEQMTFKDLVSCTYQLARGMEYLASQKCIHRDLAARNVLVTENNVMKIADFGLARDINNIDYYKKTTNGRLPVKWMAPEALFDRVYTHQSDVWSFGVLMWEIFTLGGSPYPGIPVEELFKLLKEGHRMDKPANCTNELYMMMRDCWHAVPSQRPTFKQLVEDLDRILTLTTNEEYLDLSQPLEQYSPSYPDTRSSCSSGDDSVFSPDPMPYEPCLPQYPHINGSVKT
Chain of Protein Tyrosine Kinase, FGFR1 (P11362 22-822): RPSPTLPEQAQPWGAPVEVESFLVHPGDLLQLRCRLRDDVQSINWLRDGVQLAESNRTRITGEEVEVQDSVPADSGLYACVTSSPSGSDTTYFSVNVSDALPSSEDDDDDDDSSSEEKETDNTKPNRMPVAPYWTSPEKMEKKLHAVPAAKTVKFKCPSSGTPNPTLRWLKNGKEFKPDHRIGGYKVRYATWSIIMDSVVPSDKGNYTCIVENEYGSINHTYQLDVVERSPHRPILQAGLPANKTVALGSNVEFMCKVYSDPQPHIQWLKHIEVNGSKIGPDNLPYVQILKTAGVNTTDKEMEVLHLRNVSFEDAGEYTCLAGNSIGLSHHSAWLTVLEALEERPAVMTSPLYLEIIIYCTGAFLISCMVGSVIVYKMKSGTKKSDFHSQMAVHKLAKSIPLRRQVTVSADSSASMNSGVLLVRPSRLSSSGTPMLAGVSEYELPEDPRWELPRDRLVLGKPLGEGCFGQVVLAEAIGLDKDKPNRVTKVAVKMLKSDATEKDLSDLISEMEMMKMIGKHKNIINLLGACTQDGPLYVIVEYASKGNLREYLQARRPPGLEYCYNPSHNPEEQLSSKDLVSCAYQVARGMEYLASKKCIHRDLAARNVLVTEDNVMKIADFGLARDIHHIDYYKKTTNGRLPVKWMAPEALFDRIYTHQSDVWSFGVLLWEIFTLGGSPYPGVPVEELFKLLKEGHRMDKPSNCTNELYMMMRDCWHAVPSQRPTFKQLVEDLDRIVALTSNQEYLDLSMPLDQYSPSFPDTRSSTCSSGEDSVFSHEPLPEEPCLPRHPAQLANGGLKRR
Chain of Protein Tyrosine Kinase, Insulin Receptor (P06213 28-1382): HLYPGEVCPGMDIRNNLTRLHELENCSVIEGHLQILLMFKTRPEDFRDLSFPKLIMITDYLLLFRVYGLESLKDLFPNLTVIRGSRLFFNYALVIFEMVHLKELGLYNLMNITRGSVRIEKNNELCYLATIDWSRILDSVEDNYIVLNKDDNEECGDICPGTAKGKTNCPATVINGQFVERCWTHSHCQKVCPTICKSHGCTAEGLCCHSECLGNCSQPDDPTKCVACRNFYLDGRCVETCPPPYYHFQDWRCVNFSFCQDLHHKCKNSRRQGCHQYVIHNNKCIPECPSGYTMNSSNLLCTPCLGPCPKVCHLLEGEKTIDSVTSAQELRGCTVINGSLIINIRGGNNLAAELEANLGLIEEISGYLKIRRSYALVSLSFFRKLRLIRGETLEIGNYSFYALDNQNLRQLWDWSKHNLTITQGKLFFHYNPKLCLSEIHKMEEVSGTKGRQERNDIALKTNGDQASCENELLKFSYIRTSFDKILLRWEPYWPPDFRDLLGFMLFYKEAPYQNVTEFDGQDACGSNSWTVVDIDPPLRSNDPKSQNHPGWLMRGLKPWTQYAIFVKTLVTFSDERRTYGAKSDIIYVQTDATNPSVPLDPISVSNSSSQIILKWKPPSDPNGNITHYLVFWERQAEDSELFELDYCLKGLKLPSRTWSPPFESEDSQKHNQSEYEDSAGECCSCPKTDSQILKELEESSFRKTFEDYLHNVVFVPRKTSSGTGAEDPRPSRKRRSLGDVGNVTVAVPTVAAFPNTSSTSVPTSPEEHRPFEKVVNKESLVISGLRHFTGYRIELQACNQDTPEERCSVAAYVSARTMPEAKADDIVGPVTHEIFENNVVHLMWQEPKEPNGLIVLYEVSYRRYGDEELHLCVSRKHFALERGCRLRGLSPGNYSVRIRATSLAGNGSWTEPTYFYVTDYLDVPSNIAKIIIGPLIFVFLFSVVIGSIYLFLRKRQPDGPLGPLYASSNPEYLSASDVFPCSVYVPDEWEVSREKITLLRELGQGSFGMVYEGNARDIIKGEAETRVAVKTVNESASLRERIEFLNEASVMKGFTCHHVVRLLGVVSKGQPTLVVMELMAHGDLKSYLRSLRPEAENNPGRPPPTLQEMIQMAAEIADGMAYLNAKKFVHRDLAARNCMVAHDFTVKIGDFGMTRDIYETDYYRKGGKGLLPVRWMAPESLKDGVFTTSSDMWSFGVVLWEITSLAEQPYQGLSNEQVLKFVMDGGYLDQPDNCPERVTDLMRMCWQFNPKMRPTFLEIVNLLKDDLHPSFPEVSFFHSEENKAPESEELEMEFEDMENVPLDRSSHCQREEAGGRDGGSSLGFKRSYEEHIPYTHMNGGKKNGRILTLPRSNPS
Chain of Peripheral Benzodiazepine Receptor (PBR) (P30536 whole entry, species assumed): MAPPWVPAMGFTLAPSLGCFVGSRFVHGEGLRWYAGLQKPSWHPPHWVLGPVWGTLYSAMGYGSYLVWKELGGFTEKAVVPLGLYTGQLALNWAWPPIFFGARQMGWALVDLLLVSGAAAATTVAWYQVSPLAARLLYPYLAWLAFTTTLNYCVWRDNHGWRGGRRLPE
Chain of UGT1A1 (UDP glucuronosyltransferase) (P22309 26-533): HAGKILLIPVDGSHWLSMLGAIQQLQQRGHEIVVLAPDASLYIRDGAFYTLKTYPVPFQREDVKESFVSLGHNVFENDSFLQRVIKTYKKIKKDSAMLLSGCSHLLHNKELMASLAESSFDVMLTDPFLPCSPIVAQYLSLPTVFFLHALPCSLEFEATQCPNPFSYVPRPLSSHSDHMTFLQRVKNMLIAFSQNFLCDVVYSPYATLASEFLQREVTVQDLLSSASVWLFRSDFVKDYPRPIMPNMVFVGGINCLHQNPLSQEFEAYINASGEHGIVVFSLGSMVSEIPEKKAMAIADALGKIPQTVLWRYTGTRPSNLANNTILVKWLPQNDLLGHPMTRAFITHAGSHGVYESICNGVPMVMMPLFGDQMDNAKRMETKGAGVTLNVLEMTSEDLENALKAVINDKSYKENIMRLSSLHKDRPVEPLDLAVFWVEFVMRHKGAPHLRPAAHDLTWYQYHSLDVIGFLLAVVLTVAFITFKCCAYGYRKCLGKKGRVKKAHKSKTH
Chain of UDP Glucuronosyltransferase, UGT1A1 (P22309 26-533): as above

O=c1c(O)c(-c2ccc(O)c(OP(=O)(O)O)c2)oc2cc(O)ccc12 [fisetin-3′-O-phosphate, Fisetin-3′-O-phosphate]
percent inhibition at 10 μM [1]: 65% | percent inhibition at 10 μM [2]: 72% | percent inhibition at 10 μM [3]: 94% | percent inhibition at 10 μM [4]: 96% | percent inhibition at 10 μM [5]: 91% | percent inhibition at 10 μM (Protein Tyrosine Kinase,): 82% | percent inhibition at 10 μM [6]: 74% | percent inhibition at 10 μM (AdenosineA1 [7]): 50% | percent inhibition at 10 μM (Adrenergic α2A): 57% | percent inhibition at 10 μM (Dopamine D47): 51% | percent inhibition at 10 μM [8]: 53% | percent inhibition at 10 μM [9]: 68% | percent inhibition at 10 μM [10]: 62% | antagonist activity in the AdenosineA1 assay (AdenosineA1 [11]): 48% | inhibition in the AdrenergicA2A assay (AdrenergicA2A): marked negative inhibition | degradation seen by NMR and HPLC [12]: no degradation | percent inhibition at 10 μM [13]: 52%

O=c1c(O)c(-c2ccc(O)c(OP(=O)(O)O)c2)oc2cc(O)cc(O)c12 [quercetin-3′-O-phosphate]
percent inhibition at 10 μM ([1]; 10 uM): 65% | inhibition at 10 µM [2, 15]: 72% | inhibition at 10 µM [3, 15]: 94% | inhibition at 10 µM [4, 15]: 96% | inhibition at 10 µM [5, 15]: 91% | percent inhibition at 10 μM (Protein Tyrosine Kinase,; 10 uM): 82% | inhibition at 10 µM [6, 15]: 74% | inhibition at 10 µM (AdenosineA1 [7]; [15]): 50% | inhibition at 10 µM (Adrenergic α2A; [15]): 57% | percent inhibition at 10 μM (Dopamine D47; 10 uM): 51% | inhibition at 10 µM [8, 15]: 53% | percent inhibition at 10 μM ([9]; 10 uM): 68% | inhibition at 10 µM [10, 15]: 62% | antagonist activity in the AdenosineA1 assay (AdenosineA1 [11]; 10 μM): 48% | inhibition in the AdrenergicA2A assay (AdrenergicA2A; 10 μM): marked negative inhibition | degradation seen by NMR and HPLC [12]: no degradation | inhibition at 10 µM [14]: 52%
